Article PMC4770715, “LIM kinase inhibitors disrupt mitotic microtubule organization and impair tumor cell proliferation” (Oncotarget, 2015)

What was measured:
Experiment in all cases: biochemical
Design in all cases: KINOMEscan active-site competition binding, percent of control (100 = no competition)
Conditions in all cases: competition binding, percent control
[1] = target: T1, p38-beta (Homo sapiens, UniProt Q15759)
T1 construct: gene MAPK11

[2] = target: EPHA4 (Homo sapiens, UniProt P54764)
[3] = target: EPHA5 (Homo sapiens, UniProt P54756)
[4] = target: PHKG1 (Homo sapiens, UniProt Q16816)
[5] = target: CHEK2 (Homo sapiens, UniProt O96017)
[6] = target: CDKL2 (Homo sapiens, UniProt Q92772)
[7] = target: T2, RSK1(Kin.Dom.2-C-terminal) (Homo sapiens, UniProt Q15418)
T2 construct: gene RPS6KA1; Kin.Dom.2-C-terminal

[8] = target: ROCK1 (Homo sapiens, UniProt Q13464)
[9] = target: CSNK2A1 (Homo sapiens, UniProt P68400)
[10] = target: TGFBR1 (Homo sapiens, UniProt P36897)
[11] = target: BRSK1 (Homo sapiens, UniProt Q8TDC3)
[12] = target: STK33 (Homo sapiens, UniProt Q9BYT3)
[13] = target: T3, GCN2(Kin.Dom.2,S808G) (Homo sapiens, UniProt Q9P2K8, S808G)
T3 construct: gene EIF2AK4; Kin.Dom.2

[14] = target: T4, MLK2 (Homo sapiens, UniProt Q02779)
T4 construct: gene MAP3K10

[15] = target: PIK3CA(H1047L) (Homo sapiens, UniProt P42336, H1047L)
[16] = target: TNK1 (Homo sapiens, UniProt Q13470)
[17] = target: PAK2 (Homo sapiens, UniProt Q13177)
[18] = target: GRK7 (Homo sapiens, UniProt Q8WTQ7)
[19] = target: MAPKAPK5 (Homo sapiens, UniProt Q8IW41)
[20] = target: FGFR3 (Homo sapiens, UniProt P22607)
[21] = target: GRK4 (Homo sapiens, UniProt P32298)
[22] = target: BLK (Homo sapiens, UniProt P51451)
[23] = target: TYRO3 (Homo sapiens, UniProt Q06418)
Sequence of TYRO3 (Q06418 whole entry): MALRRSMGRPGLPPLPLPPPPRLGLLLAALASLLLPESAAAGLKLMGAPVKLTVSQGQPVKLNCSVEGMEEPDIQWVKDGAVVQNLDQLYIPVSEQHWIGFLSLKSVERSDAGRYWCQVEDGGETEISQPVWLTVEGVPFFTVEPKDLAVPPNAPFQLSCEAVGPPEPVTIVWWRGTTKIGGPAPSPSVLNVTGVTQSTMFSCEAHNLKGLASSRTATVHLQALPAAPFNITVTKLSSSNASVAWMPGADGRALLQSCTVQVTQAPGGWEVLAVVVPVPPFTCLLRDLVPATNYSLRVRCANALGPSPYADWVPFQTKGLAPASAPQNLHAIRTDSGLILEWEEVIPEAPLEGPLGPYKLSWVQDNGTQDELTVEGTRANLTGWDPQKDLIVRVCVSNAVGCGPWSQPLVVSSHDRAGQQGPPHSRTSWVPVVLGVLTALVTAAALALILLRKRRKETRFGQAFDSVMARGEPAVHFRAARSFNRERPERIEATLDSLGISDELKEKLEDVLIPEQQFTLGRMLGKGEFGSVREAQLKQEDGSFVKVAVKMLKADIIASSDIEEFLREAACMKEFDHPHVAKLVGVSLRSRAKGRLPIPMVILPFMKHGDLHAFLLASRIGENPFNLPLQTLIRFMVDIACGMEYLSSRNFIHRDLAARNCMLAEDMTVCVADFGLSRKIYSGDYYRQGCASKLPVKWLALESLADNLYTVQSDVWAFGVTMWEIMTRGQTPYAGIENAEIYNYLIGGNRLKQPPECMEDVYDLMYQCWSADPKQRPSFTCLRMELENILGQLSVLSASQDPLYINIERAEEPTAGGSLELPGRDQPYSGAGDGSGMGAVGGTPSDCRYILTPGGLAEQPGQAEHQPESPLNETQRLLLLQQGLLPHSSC

Sequence of EPHA4 (P54764 whole entry): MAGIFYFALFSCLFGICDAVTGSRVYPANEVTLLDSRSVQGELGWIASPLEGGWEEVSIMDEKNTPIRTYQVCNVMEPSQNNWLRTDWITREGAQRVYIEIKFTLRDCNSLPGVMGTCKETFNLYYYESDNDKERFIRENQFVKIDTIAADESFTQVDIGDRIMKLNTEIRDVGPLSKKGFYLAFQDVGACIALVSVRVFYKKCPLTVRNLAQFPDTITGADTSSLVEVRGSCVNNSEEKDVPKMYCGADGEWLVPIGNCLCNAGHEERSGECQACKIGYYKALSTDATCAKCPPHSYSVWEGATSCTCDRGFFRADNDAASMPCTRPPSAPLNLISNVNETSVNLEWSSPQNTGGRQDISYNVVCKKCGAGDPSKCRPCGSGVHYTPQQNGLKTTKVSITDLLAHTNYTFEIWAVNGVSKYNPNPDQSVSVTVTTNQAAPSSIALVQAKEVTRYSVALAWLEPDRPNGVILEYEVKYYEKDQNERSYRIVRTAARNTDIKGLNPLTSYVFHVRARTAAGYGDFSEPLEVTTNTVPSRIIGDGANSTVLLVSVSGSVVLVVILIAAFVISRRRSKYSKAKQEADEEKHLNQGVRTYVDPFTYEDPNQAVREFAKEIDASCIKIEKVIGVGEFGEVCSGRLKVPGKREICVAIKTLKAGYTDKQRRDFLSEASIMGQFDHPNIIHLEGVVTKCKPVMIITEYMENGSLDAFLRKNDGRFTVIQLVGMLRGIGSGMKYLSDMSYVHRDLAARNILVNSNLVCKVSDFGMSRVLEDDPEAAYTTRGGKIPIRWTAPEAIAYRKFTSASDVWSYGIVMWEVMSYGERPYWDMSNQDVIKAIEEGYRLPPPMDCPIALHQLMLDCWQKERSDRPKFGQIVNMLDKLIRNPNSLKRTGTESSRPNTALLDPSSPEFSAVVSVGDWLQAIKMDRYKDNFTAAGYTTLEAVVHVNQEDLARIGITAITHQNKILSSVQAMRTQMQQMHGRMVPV
T2 sequence (Q15418 whole entry): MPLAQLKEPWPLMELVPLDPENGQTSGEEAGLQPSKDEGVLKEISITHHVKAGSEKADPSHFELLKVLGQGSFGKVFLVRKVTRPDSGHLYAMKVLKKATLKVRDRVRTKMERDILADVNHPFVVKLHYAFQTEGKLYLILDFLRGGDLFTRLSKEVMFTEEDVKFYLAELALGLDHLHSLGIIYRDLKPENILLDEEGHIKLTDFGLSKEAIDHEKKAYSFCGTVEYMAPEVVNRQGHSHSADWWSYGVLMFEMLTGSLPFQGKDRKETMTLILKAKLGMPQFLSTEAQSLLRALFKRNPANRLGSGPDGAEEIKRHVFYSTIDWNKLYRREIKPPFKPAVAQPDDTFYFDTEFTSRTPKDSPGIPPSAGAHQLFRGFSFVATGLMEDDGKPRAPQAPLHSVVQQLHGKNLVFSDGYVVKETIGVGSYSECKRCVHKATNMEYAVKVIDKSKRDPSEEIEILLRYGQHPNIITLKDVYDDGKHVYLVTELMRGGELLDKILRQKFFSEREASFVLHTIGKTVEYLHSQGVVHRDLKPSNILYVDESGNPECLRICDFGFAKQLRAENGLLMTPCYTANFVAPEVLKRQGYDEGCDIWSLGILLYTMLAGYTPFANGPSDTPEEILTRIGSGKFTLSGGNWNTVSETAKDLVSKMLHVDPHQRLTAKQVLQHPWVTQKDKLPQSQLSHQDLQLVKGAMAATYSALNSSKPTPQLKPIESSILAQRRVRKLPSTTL
Sequence of GRK4 (P32298 whole entry): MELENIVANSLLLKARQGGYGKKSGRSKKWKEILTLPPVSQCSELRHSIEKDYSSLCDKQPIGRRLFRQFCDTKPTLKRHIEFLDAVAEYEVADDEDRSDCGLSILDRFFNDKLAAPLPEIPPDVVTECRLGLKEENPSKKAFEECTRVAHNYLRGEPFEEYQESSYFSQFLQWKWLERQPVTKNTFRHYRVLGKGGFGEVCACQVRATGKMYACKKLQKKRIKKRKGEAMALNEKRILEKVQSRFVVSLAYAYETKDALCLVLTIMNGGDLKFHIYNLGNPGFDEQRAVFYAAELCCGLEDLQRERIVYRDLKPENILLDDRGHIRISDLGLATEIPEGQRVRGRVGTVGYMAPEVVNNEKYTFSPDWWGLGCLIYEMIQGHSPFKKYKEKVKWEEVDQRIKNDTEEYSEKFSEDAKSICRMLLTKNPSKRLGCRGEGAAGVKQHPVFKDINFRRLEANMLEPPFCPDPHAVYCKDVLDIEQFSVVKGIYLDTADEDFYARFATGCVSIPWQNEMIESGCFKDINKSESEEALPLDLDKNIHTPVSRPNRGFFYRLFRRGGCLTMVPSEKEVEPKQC
Sequence of PHKG1 (Q16816 whole entry): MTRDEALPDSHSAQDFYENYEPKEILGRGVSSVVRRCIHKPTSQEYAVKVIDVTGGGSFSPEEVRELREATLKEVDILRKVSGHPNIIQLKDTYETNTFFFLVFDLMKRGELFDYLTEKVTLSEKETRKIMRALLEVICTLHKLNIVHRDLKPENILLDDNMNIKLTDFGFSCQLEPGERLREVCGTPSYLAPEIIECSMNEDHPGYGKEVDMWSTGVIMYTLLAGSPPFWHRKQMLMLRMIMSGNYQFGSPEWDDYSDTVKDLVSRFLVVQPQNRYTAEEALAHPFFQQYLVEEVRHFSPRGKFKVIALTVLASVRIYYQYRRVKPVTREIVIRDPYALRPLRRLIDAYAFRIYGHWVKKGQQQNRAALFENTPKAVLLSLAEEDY
Sequence of ROCK1 (Q13464 whole entry): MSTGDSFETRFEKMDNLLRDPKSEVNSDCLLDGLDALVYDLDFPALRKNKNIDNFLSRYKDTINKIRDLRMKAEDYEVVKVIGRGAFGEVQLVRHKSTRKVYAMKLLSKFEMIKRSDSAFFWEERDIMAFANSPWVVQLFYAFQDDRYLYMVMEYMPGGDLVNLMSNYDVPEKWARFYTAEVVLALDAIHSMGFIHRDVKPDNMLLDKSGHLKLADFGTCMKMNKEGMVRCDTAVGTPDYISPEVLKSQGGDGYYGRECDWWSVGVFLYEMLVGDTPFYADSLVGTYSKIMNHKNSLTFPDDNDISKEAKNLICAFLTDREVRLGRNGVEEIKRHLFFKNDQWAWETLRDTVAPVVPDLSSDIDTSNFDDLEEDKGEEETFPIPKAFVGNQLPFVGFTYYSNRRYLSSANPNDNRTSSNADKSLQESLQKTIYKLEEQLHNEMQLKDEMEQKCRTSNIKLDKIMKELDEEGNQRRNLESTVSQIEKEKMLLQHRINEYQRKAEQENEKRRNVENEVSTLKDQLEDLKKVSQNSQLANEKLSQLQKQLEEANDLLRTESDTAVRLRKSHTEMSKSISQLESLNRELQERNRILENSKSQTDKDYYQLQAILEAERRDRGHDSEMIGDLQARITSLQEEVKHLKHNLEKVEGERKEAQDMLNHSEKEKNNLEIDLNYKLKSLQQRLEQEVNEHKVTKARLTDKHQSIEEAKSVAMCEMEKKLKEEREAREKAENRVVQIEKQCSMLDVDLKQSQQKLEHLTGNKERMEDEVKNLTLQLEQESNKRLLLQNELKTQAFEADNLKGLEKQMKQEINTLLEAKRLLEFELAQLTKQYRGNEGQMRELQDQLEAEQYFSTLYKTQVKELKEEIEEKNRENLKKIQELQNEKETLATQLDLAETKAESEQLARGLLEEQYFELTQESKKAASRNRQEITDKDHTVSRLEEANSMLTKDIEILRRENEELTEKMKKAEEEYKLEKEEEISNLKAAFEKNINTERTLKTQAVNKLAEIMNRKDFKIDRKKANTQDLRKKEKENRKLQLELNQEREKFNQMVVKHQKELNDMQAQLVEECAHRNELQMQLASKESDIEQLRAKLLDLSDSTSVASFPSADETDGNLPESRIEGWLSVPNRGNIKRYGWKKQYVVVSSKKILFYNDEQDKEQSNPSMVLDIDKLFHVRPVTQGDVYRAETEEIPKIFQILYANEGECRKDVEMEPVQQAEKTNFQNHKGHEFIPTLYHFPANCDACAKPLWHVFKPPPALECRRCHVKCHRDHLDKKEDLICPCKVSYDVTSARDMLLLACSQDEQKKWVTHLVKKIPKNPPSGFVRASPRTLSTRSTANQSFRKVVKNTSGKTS

SMILES	remaining binding at 10 µM [1]	remaining binding at 10 µM [2]	remaining binding at 10 µM [3]	remaining binding at 10 µM [4]	remaining binding at 10 µM [5]	remaining binding at 10 µM [6]	remaining binding at 10 µM [7]	remaining binding at 10 µM [8]	remaining binding at 10 µM [9]	remaining binding at 10 µM [10]	remaining binding at 10 µM [11]	remaining binding at 10 µM [12]	remaining binding at 10 µM [13]	remaining binding at 10 µM [14]	remaining binding at 10 µM [15]	remaining binding at 10 µM [16]	remaining binding at 10 µM [17]	remaining binding at 10 µM [18]	remaining binding at 10 µM [19]	remaining binding at 10 µM [20]	also measured
COc1ccc(-c2cnccc2-c2cnc(NC(=O)C(C)C)s2)c(C(F)(F)F)c1 [CRT0105446, N-{5-[3-(4-Methoxy-2-trifluoromethyl-phenyl)-pyridin-4-yl]-hiazol-2-yl}-isobutyramide]	100%	100%	100%	78%	100%	2.2%	43%	86%	95%	99%	27%	100%	92%	69%	100%	67%	80%	58%	95%	96%	remaining binding at 10 µM [21]: 100%; remaining binding at 10 µM [22]: 100%; remaining binding at 10 µM [23]: 100%
Cc1ccc(-c2cnccc2-c2cnc(Nc3ccc(O)cc3)s2)c(Cl)c1 [CRT0105950, 4-{5-[3-(2-Chloro-4-methyl-phenyl)-pyridin-4-yl]-thiazol-2-ylamino}-phenol]	93%	94%	100%	56%	55%	0.6%	27%	79%	60%	74%	30%	100%	94%	40%	97%	3.7%	76%	16%	97%	4.8%	remaining binding at 10 µM [21]: 89%; remaining binding at 10 µM [22]: 9.2%; remaining binding at 10 µM [23]: 51%
